Test results reported in article PMC9950431, “A bivalent remipede toxin promotes calcium release via ryanodine receptor activation” (Nature Communications, 2023).
Entries after “also recorded” stand apart in the source; their conditions may differ.

Assays:
α7 nAChR = test: FLIPR Ca2+ assay, inhibition of endogenous α7 nAChR; assay type: cell-based, human; conditions: for Ca2+ response relative to control response: 3 µM Xt3a pre-treatment, choline 30 μM/PNU-120596 10 μM, over 300 s
Procedure: (§1) SH-SY5Y human neuroblastoma cells (European Collection of Authenticated Cell Culture, Sigma Aldrich, 94030304-1VL) were cultured in RPMI media (ThermoFisher Scientific, Scoresby, Australia) supplemented with 15% foetal bovine serum and L-glutamine (1 mM) and passaged at approximately 80% confluency with TrypLE Express (Thermo Fisher, Australia). For fluorescence imaging, cells were plated on CellBIND (Corning) 384-well black-walled imaging plates at a density of 20,000–30,000 cells/well in complete media and cultured for 48 h at 37 °C/5% CO2.
Briefly, SH-SY5Y cells were loaded with Calcium 4 no-wash dye (Molecular Devices) diluted in physiological salt solution (composition in mM: NaCl 140, D-glucose 11.5, KCl 5.9, MgCl2 1.4, NaH2PO4 1.2, NaHCO3 5, CaCl2 1.8, HEPES 10) for 30 min at 37 °C. A two-addition FLIPR^Tetra (Molecular Devices) protocol using the following settings was used to measure fluorescence responses: excitation 470–495 nm; emission 515–575 nm; excitation intensity 80%; excitation duration 0.8 s; gain 140; read interval 1/s; read number 300/addition. Responses mediated via endogenously expressed ion channels were elicited by addition of: choline (30 μM)/PNU-120596 (10 μM) for α7 nAChR-mediated responses; nicotine (30 μM) for α3β2/α3β4 nAChR-mediated responses; KCl (90 mM)/CaCl2 (5 mM) for CaV1.3-mediated responses; KCl (90 mM)/CaCl2 (5 mM) + nifedipine (10 μM) for CaV2.2-mediated responses; vertridine (70 μM) for NaV1.2-mediated responses; and veratridine (4 μM)/OD1 (300 nM) for NaV1.7-mediated responses. Raw fluorescence readings were converted to response over baseline using the analysis tool Screenworks 3.1.1.4 (Molecular Devices) and were expressed relative to the maximum increase in fluorescence of control responses and plotted using GraphPad Prism 9.3.1.
In the cell-based FLIPR assays statistical analysis was performed using GraphPad Prism 9.3.1. Statistical significance was defined as p < 0.05, and determined by one-sample t-test assessing difference to the control value of 100%. In α7 nAChR, α3-containing nAChR, CaV1.3, CaV2.2, NaV1.2 and NaV1.7 channels (Supplementary Fig. 5B), with distribution (t) and degrees of freedom (df) being: t = 0.9683, df = 2 (α7); t = 1.338, df = 2 (α3); t = 1.775, df = 2 (NaV1.2); t = 1.478

RyR1 = target: T1, RyR1 (Oryctolagus cuniculus, UniProt P11716); test: Washout (reversibility/avidity) single channel experiments, RyR1; assay type: biochemical, New Zealand white rabbit (skeletal SR)
T1 construct: skeletal SR vesicles were isolated from the back and leg muscles of mature female New Zealand white rabbits; from tissue; host or cells: rabbit back and leg skeletal muscle, sarcoplasmic reticulum vesicles
Procedure: (§2) Cardiac SR was prepared from mature female crossbred sheep hearts, and skeletal SR vesicles were isolated from the back and leg muscles of mature female New Zealand white rabbits[29],[54] with approval from the ANU Animal Experiment Ethics Committee Protocol Number A2015/35. […] Solutions for vesicle incorporation contained (mM): cis 230 caesium methanesulfonate (CsMS); 20 CsCl; 1 CaCl2 and 10 […] (TES) pH 7.4 and trans 30 CsMS; 20 CsCl; 1 CaCl2 10 TES; pH 7.4. SR vesicles routinely incorporated with the cytoplasmic surface of the SR and RyR facing the cis chamber. Following incorporation, 200 mM CsMS was added to the trans solution and the cis solution exchanged with recording solution containing (mM): 230 CsMS; 20 CsCl; 0.001 CaCl2;10 TES and pH 7.4, with [Ca^2+] set by a [BAPTA] determined using a Ca^2+ electrode. […] Electrophysiology experiments were analysed using Channel 2 (P.W. Gage, M. Smith, Australian National University) and Channel 3 (N.W. Laver, University of Newcastle, Australia) software, available from the authors upon request. […] Following most incorporation events, a single channel only was active in the bilayer and channel open probability (Po), mean open time (To), mean closed time (Tc) and open event frequency (Fo) were measured. […] In all experiments control channel activity was recorded for 3 to 5 min before exposure to the test compound. […]

RyR2 = test: Washout (reversibility/avidity) single channel experiments, RyR2; assay type: biochemical, sheep (cardiac SR); conditions: 10 nM and 1 μM
Procedure: as §2

[1] = test system: SH-SY5Y neuroblastoma cells; test: FLIPR intracellular Ca2+ assay, SH-SY5Y cells (direct response); assay type: cell-based, human; conditions: Xt3a 3 µM
Procedure: as §1
Briefly, SH-SY5Y cells were loaded with Calcium 4 no-wash dye (Molecular Devices) diluted in physiological salt solution (composition in mM: NaCl 140, D-glucose 11.5, KCl 5.9, MgCl2 1.4, NaH2PO4 1.2, NaHCO3 5, CaCl2 1.8, HEPES 10) for 30 min at 37 °C. A two-addition FLIPR^Tetra (Molecular Devices) protocol using the following settings was used to measure fluorescence responses: excitation 470–495 nm; emission 515–575 nm; excitation intensity 80%; excitation duration 0.8 s; gain 140; read interval 1/s; read number 300/addition. […] Raw fluorescence readings were converted to response over baseline using the analysis tool Screenworks 3.1.1.4 (Molecular Devices) and were expressed relative to the maximum increase in fluorescence of control responses and plotted using GraphPad Prism 9.3.1.

T1 sequence (P11716 whole entry): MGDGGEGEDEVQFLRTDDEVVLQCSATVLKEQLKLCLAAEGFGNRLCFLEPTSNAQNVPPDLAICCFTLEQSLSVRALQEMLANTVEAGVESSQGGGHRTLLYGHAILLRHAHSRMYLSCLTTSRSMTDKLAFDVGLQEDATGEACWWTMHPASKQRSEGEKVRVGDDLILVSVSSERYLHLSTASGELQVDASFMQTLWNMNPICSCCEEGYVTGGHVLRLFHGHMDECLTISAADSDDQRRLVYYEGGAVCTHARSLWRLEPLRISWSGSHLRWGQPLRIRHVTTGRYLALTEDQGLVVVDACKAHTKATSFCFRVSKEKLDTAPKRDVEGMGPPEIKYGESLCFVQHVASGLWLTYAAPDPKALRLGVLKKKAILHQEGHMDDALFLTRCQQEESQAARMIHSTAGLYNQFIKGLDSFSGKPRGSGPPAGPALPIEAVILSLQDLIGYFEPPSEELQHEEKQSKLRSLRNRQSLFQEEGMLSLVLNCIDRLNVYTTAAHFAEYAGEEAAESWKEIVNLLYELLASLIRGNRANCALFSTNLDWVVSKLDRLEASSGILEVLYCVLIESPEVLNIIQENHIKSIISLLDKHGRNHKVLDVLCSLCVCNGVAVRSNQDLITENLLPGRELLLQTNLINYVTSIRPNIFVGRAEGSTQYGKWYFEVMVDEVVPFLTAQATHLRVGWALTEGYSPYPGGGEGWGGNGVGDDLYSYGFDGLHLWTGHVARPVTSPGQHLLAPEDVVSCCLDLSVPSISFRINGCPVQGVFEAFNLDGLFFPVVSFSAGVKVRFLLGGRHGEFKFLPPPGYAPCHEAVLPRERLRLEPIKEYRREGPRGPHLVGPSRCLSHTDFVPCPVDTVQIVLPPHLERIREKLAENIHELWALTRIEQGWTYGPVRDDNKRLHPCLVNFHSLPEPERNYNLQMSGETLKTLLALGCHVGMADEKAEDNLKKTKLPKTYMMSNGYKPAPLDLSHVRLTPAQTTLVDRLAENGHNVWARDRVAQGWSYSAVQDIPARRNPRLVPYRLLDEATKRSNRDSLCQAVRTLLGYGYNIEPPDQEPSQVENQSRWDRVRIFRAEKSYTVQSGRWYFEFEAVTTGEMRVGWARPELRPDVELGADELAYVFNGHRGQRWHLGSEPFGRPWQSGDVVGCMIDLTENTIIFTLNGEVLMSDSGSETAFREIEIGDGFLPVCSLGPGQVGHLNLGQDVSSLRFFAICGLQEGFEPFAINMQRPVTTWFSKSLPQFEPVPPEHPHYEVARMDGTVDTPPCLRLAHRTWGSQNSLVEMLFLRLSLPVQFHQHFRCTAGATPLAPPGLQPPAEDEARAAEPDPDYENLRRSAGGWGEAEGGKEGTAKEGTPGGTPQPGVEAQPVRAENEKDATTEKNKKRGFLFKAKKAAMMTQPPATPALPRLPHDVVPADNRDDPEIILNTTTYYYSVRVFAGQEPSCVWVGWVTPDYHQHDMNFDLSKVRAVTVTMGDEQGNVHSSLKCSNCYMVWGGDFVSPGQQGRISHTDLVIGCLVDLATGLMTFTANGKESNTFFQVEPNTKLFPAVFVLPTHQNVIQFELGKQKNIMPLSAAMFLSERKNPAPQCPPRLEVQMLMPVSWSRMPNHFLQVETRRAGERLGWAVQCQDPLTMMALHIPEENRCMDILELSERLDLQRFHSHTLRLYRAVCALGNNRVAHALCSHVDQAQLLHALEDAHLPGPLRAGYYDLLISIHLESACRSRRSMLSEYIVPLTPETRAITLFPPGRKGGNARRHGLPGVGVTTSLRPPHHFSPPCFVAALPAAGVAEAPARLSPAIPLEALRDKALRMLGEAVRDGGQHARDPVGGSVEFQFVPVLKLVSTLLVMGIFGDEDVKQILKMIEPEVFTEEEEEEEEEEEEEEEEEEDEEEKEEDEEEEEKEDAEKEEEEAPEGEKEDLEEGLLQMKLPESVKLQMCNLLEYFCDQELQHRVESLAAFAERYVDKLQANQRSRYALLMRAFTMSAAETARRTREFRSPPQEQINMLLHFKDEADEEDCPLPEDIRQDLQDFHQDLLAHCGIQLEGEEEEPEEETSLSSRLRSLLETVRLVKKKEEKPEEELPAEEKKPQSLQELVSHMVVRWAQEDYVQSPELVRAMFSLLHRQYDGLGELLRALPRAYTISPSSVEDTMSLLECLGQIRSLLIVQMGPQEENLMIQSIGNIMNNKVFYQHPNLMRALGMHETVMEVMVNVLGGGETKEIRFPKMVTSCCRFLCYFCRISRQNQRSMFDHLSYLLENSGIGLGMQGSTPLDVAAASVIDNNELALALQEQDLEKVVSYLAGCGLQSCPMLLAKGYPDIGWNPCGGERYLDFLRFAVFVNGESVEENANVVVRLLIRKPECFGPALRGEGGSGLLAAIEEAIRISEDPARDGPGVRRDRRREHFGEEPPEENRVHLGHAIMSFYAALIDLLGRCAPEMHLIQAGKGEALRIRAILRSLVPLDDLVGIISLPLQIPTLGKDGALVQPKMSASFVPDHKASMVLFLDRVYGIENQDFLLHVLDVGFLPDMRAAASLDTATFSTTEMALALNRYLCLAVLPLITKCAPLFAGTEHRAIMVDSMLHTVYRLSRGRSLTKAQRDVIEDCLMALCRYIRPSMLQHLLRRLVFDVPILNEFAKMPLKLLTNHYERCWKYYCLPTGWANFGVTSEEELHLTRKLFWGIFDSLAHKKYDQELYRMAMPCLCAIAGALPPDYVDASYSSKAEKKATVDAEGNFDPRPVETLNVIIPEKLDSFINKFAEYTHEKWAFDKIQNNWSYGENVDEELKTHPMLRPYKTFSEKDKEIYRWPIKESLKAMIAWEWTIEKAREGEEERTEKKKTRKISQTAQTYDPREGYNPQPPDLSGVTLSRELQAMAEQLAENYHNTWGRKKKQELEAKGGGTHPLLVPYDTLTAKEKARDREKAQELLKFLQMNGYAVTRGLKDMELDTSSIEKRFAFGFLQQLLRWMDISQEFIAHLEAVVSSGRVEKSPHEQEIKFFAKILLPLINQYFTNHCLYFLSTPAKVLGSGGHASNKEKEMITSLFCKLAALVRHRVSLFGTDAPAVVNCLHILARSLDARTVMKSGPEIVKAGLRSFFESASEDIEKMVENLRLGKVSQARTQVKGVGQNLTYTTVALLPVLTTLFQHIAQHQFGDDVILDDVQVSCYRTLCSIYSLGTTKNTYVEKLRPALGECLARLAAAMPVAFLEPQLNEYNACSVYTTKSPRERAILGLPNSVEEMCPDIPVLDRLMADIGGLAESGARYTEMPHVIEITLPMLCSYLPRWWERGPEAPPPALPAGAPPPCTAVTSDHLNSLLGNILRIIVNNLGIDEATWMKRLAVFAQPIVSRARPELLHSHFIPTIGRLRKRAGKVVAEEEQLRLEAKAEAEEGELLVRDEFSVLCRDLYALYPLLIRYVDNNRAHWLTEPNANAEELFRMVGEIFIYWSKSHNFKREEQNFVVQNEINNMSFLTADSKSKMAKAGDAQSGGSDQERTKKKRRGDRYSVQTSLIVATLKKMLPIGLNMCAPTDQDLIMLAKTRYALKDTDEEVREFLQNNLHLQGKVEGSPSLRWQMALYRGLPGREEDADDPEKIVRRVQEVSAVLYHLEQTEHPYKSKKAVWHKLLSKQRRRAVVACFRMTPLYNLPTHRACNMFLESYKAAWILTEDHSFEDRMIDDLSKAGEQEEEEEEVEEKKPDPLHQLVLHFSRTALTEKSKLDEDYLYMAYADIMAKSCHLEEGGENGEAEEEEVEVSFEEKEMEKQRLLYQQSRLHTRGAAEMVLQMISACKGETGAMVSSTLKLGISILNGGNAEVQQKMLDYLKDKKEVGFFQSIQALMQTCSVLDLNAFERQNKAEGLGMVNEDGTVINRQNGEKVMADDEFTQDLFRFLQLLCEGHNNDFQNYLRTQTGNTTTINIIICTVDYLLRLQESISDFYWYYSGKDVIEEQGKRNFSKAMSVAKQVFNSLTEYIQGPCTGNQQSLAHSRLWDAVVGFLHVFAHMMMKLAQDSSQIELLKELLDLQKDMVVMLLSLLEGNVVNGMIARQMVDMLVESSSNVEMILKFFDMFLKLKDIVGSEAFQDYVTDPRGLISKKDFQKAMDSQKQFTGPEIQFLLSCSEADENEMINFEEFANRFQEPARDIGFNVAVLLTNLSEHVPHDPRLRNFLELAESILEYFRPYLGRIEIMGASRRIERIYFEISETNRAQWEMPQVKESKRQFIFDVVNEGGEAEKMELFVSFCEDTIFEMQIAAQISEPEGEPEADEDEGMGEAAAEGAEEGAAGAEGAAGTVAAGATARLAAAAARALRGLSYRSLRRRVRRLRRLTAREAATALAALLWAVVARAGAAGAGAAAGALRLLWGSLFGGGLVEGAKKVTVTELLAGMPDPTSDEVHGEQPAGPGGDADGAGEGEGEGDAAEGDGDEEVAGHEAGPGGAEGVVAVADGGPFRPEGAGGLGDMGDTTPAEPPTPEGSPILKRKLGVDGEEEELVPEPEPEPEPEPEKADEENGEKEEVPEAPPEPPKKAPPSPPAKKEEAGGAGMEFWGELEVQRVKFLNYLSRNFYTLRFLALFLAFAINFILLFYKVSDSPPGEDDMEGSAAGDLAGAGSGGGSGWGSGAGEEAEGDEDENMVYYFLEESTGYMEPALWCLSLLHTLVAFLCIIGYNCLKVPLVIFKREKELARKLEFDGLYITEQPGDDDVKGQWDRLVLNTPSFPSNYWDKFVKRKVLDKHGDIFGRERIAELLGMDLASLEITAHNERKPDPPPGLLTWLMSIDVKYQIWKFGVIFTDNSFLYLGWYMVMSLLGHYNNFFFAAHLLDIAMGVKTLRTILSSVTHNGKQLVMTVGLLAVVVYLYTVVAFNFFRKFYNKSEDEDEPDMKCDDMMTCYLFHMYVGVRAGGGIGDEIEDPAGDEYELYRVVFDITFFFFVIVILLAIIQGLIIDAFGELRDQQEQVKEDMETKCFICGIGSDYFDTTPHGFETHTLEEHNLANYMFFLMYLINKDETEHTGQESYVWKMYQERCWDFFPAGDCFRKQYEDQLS

Substance: φ-Xibalbin3-Xt3a
- Ca2+ response relative to control response (α7 nAChR; replicate 1): 99.1155%
- Ca2+ response relative to control response (α7 nAChR; replicate 2): 100.788%
- Ca2+ response relative to control response (α7 nAChR; replicate 3): 96.222%
- inhibition of Ca2+ responses (α7 nAChR; Xt3a 3 µM): did not inhibit Ca^2+ responses
- reversibility on washout (RyR1; 100 pM, 10 nM and 1 μM, early (2 to 3 min) and late (15 to 23 min) after washout): no significant washout of Xt3a effect was observed; also recorded: persistent activity after washout in our single-channel recordings for as long as the bilayers lasted
- sub-state activity during washout (RyR1; maintained for as long as the bilayer lasted): sub-state activity increased during the washout period
- channel activity during washout (RyR2): activity did appear to increase somewhat during washout
- increase in intracellular Ca2+ [1]: did not elicit an increase in intracellular Ca^2+; also recorded: does not elicit an increase in intracellular Ca2+ responses
